Results published in patent publication US8658616B2, “Nucleoside aryl phosphoramidates and their use as anti-viral agents for the treatment of hepatitis C virus” (University College Cardiff Consultants Limited, priority 2006, dated 2014).
Values joined by “and” are separate entries in the source; they are usually repeats but may differ in a detail not shown here. Equal entries are not always repeated. Where two headings read alike, the source gives them in different places.

What was measured:
[1] = tested on: subgenomic HCV replicons I389luc-ubi-neo/NS3-3′/5.1 (Huh 5-2); test: Anti-HCV assay in Huh 5-2 cells (luciferase replicon); format: cell-based, hepatitis C virus (HCV); settings: for potency with respect to HCV compared with compound CHC5 (free nucleoside): comparison of Table I data
Text: (§1) Anti-HCV assay in Huh 7 cells. Huh 7 cells containing subgenomic HCV replicons I389luc-ubi-neo/NS3-3′/5.1 (Huh 5-2) or I377/NS3-3′/wt (Huh 9-13) have been described (Lohmann V, Korner F, Koch J, Herian U, Theilmann L, Bartenschlager R. (1999) Replication of subgenomic hepatitis C virus RNAs in a hepatoma cell line. Science 285:110-113. Lohmann V, Korner F, Dobierzewska A, Bartenschlager R. (2001) Mutations in hepatitis C virus RNAs conferring cell culture adaptation. J Virol. 75:1437-1449.). Cells were grown in Dulbecco's modified Eagle's Medium (DMEM; Gibco, Merelbeke, Belgium) supplemented with 10% heat-inactivated fetal bovine serum (FCS) (Integro, Zaandam, The Netherlands), 1× non-essential amino acids (Gibco), 100 IU/ml penicillin (Gibco), 100 μg/ml streptomycin (Gibco) and 250 μg/ml Geneticin (G418, Gibco) for Huh 5-2 cells, 1000 μg/ml G418 for Huh 9-13 cells
Anti-HCV Assay in Huh 5-2 Cells.
Huh 5-2 cells were seeded at a density of 5×10^3 per well in a tissue culture treated white 96-well view plate (Packard, Canberra, Canada) in complete DMEM supplemented with 250 μg/ml G418. Following incubation for 24 h at 37° C. (5% CO2) medium was removed and serial dilutions in complete DMEM (without G418) of the test compounds were added in a total volume of 100 μl. After 4 days of incubation at 37° C., cell culture medium was removed and luciferase activity was determined using the Steady-Glo luciferase assay system (Promega, Leiden, The Netherlands); the luciferase signal was measured using a Luminoskan Ascent (Thermo, Vantaa, Finland). The 50% effective concentration (EC50) was defined as the concentration of compound that reduced the luciferase signal by 50%.

[2] = CC50 (cytotoxicity, Table I); format: cell-based; settings: human, Huh 7 cells; method and cell line not described
Huh 7 cells = test: CC50 (cytotoxicity, Table I); format: cell-based; settings: method and cell line not described
[3] = tested on: subgenomic HCV replicons I377/NS3-3′/wt (Huh 9-13); test: Anti-HCV assay in Huh 9-13 cells (RT-qPCR of replicon RNA); format: cell-based, hepatitis C virus (HCV); settings: read-out: HCV Huh 9-13 EC50
Text: as §1
Anti-HCV Assay in Huh 9-13 Cells.
Huh 9-13 cells were seeded at a density of 5×10^3 cells per well in 96-well cell culture plates in complete DMEM supplemented with 1000 μg/ml G418. Following incubation for 24 h at 37° C. cell culture medium was removed and serial dilutions of the test compounds in complete DMEM without G418 were added in a total volume of 100 μl. After 4 days of incubation at 37° C., cell culture fluid was removed and monolayers were washed once with phosphate-buffered saline. Cells were lysed in 350 μl RLT buffer (Qiagen, Venlo, The Netherlands) according to the Manufacturer's instruction. Lysates were stored at −80° C. until further use. […]

[4] = Huh 5-2 cells, 4 days incubation, concentration that reduced the luciferase signal by 50%, read-out: HCV Huh 5-2 EC50
[5] = Hepatitis C virus, Huh-5-2, 96 h, read-out: HCV Huh 5-2 EC50, Huh 5-2 cells, 4 days incubation, concentration that reduced the luciferase signal by 50%

Row | SMILES | CC50 [2] [nM] | EC50 [1, 5] [nM] | further results
1 | CC1(O)C(O)[C@@H](CO)O[C@H]1n1cnc2c(N)ncnc21 (stereo partly drawn) [CHC1, β-2′-methyl-adenosine, reference compound] | 29000 | – | EC50 ([1]; Hepatitis C virus, Huh-5-2, 96 h, Huh 5-2 cells, 4 days incubation, concentration that reduced the luciferase signal by 50%, read-out: HCV Huh 5-2 EC50): 140 nM; EC50 [1, 4]: 80 nM and 130 nM; CC50 (Huh 7 cells): > 33000 nM
2 | C[C@H](NP(=O)(OC[C@H]1O[C@@H](n2cnc3c(=O)[nH]c(N)nc32)C(C)(O)C1O)Oc1cccc2ccccc12)C(=O)OC(C)(C)C (stereo partly drawn) [CHC8, β-2′-methyl-guanosine 5′-O-[α-naphthyl(tert-butoxy-L-alaninyl)]phosphate] | > 50000 | > 50000 | –
3 | C[C@@]1(O)[C@H](O)[C@@H](CO)O[C@H]1n1cnc2c(=O)[nH]c(N)nc21 [CHC5, β-2′-methyl-guanosine, reference compound] | – | – | EC50 [1, 4]: 3000 nM and 5000 nM; EC50 ([3]; Huh 9-13 cells, 4 days incubation, concentration that reduced replicon RNA content by 50% (RT-qPCR)): 1500 nM; CC50 (Huh 7 cells): > 50000 nM
4 | CCOC(=O)[C@H](C)NP(=O)(OC[C@H]1O[C@@H](n2cnc3c(=O)[nH]c(N)nc32)C(C)(O)C1O)Oc1cccc2ccccc12 (stereo partly drawn) [CHC7, β-2′-methyl-guanosine 5′-O-[α-naphthyl(ethoxy-L-alaninyl)]phosphate] | > 50000 | 150 | potency with respect to HCV compared with compound CHC5 (free nucleoside) [1]: greater potency; EC50 ([1]; read-out: HCV Huh 5-2 EC50, Huh 5-2 cells, 4 days incubation, concentration that reduced the luciferase signal by 50%): 200 nM and 160 nM
5 | C[C@H](NP(=O)(OC[C@H]1O[C@@H](n2cnc3c(=O)[nH]c(N)nc32)C(C)(O)C1O)Oc1ccccc1)C(=O)OCc1ccccc1 (stereo partly drawn) [CHC9, β-2′-methyl-guanosine 5′-O-[phenyl(benzoxy-L-alaninyl)]phosphate] | > 50000 | 36000 | EC50 ([3]; Hepatitis C virus, 96 h): 4100 nM
6 | C[C@H](NP(=O)(OC[C@H]1O[C@@H](n2cnc3c(=O)[nH]c(N)nc32)C(C)(O)C1O)Oc1cccc2ccccc12)C(=O)OCc1ccccc1 (stereo partly drawn) [CHC6, β-2′-methyl-guanosine 5′-O-[α-naphthyl(benzoxy-L-alaninyl)]phosphate] | > 50000 | – | potency with respect to HCV compared with compound CHC5 (free nucleoside) [1]: greater potency; EC50 ([3]; Hepatitis C virus, 96 h): 60 nM
7 | CCOC(=O)[C@H](C)NP(=O)(OC[C@H]1O[C@@H](n2cnc3c(N)ncnc32)C(C)(O)C1O)Oc1cccc2ccccc12 (stereo partly drawn) [CHC2, β-2′-methyl-adenosine 5′-O-[α-naphthyl(ethoxy-L-alaninyl)]phosphate] | > 50000 | 120 | –
8 | C[C@H](NP(=O)(OC[C@H]1O[C@@H](n2cnc3c(N)ncnc32)C(C)(O)C1O)Oc1cccc2ccccc12)C(=O)OCc1ccccc1 (stereo partly drawn) [CHC3, β-2′-methyl-adenosine 5′-O-[α-naphthyl(benzoxy-L-alaninyl)]phosphate] | 44000 | 160 | –
9 | C[C@H](NP(=O)(OC[C@H]1O[C@@H](n2cnc3c(N)ncnc32)C(C)(O)C1O)Oc1cccc2ccccc12)C(=O)OC(C)(C)C (stereo partly drawn) [CHC4, β-2′-methyl-adenosine 5′-O-[α-naphthyl(tert-butoxy-L-alaninyl)]phosphate] | > 50000 | 2360 | –
